According to the kinase profiling compilation of Christmann-Franck et al. (2016):

What was measured:
Test in all cases: SelectScreen, TR FRET
Settings in all cases: compound 5.0 µM
[1] = test system: EGFR (human), P00533 [L861Q]
[2] = biological target: GRK5 (human) (UniProt P34947)
[3] = biological target: PRKCQ (human) (UniProt Q04759)
[4] = biological target: MAP4K5 (human) (UniProt Q9Y4K4)
[5] = biological target: INSRR (human) (UniProt P14616)
[6] = biological target: EPHA8 (human) (UniProt P29322)
[7] = biological target: MET (human) (UniProt P08581)
[8] = biological target: CHEK1 (human) (UniProt O14757)
[9] = biological target: KDR (human) (UniProt P35968)
[10] = biological target: DYRK3 (human) (UniProt O43781)
[11] = test system: KIT (human), P10721 [T670I]
[12] = biological target: IKBKB (human) (UniProt O14920)
[13] = biological target: IGF1R (human) (UniProt P08069)
Sequence of IGF1R (human) (P08069 whole entry, looked up): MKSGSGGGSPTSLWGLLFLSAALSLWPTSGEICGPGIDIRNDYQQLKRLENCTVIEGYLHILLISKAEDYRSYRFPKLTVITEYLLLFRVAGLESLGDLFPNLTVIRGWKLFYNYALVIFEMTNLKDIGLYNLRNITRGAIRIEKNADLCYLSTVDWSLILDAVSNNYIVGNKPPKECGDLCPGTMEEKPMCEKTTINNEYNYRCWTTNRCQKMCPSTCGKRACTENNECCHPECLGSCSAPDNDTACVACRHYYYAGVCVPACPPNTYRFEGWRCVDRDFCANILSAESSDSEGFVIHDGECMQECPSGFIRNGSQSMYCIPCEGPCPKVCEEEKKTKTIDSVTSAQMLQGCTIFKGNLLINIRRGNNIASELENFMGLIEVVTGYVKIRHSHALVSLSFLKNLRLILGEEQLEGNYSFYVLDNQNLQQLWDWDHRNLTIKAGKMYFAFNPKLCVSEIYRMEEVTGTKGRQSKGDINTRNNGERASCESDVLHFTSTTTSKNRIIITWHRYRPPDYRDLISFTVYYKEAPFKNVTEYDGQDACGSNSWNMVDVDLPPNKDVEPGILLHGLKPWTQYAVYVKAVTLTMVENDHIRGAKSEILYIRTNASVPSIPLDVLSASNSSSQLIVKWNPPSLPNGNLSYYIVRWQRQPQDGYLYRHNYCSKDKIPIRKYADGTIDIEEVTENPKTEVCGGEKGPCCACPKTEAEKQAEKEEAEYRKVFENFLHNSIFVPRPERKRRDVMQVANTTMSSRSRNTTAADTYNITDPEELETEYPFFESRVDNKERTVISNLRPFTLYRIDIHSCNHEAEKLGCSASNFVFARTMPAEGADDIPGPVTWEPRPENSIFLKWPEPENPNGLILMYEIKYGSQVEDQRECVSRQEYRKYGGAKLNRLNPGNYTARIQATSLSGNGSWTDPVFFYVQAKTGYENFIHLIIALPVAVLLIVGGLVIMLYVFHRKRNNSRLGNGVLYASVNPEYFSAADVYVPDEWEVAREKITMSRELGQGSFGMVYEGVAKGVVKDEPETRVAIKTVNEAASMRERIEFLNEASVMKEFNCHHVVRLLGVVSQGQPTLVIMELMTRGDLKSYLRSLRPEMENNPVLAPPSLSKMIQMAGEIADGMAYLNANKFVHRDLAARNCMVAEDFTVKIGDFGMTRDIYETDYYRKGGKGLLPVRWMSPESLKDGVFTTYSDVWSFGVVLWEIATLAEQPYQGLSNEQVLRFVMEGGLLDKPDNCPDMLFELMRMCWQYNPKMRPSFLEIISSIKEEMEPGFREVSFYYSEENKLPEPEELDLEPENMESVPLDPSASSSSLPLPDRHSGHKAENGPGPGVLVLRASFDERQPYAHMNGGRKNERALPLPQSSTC

[14] = biological target: CSNK2A1 (human) (UniProt P68400)
[15] = biological target: NTRK2 (human) (UniProt Q16620)
[16] = biological target: AKT2 (human) (UniProt P31751)
[17] = biological target: CSNK1D (human) (UniProt P48730)
Sequence of CSNK1D (human) (P48730 whole entry, looked up): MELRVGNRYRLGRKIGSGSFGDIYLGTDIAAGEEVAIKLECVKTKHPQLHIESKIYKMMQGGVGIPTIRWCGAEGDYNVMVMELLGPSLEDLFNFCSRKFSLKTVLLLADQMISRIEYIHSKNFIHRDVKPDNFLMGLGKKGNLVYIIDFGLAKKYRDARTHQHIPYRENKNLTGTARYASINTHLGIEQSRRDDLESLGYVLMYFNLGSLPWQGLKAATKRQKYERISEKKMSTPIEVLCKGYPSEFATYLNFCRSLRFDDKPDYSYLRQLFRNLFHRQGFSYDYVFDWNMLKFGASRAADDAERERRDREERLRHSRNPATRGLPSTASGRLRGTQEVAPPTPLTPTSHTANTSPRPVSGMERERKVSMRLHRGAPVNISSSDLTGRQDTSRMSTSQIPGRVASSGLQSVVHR

[18] = biological target: MAPK12 (human) (UniProt P53778)
[19] = test system: PDGFRA (human), P16234 [D842V]
[20] = biological target: EPHA5 (human) (UniProt P54756)
[21] = biological target: GRK4 (human) (UniProt P32298)
[22] = biological target: TSSK1B (human) (UniProt Q9BXA7)
[23] = biological target: PRKCA (human) (UniProt P17252)
[24] = test system: ABL1 (human), P00519 [T315I]
[25] = test system: ABL1 (human), P00519 [G250E]
[26] = biological target: PRKCI (human) (UniProt P41743)
Sequence of PRKCI (human) (P41743 whole entry, looked up): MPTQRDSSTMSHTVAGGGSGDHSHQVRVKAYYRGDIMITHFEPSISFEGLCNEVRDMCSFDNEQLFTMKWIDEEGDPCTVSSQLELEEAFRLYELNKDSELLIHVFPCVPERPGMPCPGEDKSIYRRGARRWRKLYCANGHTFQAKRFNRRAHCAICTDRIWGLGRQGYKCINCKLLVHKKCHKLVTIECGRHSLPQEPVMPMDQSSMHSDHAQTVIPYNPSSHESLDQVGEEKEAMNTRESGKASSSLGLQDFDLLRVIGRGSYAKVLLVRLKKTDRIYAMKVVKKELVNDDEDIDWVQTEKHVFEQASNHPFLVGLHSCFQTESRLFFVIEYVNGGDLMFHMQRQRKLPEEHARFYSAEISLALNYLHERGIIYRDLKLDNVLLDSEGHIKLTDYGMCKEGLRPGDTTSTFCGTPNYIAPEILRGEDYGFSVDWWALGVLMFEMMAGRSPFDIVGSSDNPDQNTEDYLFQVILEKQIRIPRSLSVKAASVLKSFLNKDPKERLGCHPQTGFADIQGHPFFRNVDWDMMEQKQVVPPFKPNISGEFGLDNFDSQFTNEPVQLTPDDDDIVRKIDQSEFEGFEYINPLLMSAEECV

[27] = biological target: MAPK14 (human) (UniProt Q16539)
Sequence of MAPK14 (human) (Q16539 whole entry, looked up): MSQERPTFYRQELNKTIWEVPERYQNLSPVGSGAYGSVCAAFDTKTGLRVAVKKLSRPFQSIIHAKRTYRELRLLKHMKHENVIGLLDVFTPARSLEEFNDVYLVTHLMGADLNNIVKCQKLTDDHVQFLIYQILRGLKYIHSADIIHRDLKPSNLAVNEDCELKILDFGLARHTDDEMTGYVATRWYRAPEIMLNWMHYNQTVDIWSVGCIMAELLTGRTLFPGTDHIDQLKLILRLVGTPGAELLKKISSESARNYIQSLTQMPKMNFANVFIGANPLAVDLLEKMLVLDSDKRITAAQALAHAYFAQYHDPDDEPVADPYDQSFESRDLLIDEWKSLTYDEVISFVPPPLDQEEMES

[28] = biological target: PAK3 (human) (UniProt O75914)
[29] = biological target: TEK (human) (UniProt Q02763)
[30] = biological target: RPS6KA5 KD1 KD2 (human) (UniProt O75582)
[31] = biological target: NTRK1 (human) (UniProt P04629)
[32] = biological target: JAK2 JH1 JH2 (human) (UniProt O60674)
[33] = biological target: HCK (human) (UniProt P08631)
[34] = biological target: CSNK1A1 (human) (UniProt P48729)
Sequence of CSNK1A1 (human) (P48729 whole entry, looked up): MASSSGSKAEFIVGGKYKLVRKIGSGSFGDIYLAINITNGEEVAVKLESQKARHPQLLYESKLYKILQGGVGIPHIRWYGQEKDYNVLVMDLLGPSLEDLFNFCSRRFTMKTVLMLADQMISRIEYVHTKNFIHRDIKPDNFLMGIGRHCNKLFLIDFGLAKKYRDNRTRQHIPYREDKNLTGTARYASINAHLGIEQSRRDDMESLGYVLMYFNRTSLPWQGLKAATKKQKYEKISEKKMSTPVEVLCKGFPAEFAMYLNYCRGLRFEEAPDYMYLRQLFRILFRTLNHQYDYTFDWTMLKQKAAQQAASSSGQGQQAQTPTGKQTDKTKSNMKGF

[35] = biological target: MAP2K2 (human) (UniProt P36507)
[36] = biological target: PRKD1 (human) (UniProt Q15139)
[37] = biological target: GSK3A (human) (UniProt P49840)
[38] = biological target: PDGFRB (human) (UniProt P09619)
[39] = biological target: AURKB (human) (UniProt Q96GD4)
Sequence of AURKB (human) (Q96GD4 whole entry, looked up): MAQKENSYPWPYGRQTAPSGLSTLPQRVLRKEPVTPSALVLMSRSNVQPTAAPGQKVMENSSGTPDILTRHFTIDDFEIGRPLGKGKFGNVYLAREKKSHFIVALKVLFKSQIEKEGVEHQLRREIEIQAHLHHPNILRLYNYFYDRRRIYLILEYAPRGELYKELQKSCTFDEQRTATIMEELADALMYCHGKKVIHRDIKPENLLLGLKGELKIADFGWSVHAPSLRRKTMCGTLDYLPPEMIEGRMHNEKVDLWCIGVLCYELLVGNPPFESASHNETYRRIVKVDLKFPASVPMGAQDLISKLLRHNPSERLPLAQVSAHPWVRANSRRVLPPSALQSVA

[40] = biological target: INSR (human) (UniProt P06213)
Sequence of INSR (human) (P06213 whole entry, looked up): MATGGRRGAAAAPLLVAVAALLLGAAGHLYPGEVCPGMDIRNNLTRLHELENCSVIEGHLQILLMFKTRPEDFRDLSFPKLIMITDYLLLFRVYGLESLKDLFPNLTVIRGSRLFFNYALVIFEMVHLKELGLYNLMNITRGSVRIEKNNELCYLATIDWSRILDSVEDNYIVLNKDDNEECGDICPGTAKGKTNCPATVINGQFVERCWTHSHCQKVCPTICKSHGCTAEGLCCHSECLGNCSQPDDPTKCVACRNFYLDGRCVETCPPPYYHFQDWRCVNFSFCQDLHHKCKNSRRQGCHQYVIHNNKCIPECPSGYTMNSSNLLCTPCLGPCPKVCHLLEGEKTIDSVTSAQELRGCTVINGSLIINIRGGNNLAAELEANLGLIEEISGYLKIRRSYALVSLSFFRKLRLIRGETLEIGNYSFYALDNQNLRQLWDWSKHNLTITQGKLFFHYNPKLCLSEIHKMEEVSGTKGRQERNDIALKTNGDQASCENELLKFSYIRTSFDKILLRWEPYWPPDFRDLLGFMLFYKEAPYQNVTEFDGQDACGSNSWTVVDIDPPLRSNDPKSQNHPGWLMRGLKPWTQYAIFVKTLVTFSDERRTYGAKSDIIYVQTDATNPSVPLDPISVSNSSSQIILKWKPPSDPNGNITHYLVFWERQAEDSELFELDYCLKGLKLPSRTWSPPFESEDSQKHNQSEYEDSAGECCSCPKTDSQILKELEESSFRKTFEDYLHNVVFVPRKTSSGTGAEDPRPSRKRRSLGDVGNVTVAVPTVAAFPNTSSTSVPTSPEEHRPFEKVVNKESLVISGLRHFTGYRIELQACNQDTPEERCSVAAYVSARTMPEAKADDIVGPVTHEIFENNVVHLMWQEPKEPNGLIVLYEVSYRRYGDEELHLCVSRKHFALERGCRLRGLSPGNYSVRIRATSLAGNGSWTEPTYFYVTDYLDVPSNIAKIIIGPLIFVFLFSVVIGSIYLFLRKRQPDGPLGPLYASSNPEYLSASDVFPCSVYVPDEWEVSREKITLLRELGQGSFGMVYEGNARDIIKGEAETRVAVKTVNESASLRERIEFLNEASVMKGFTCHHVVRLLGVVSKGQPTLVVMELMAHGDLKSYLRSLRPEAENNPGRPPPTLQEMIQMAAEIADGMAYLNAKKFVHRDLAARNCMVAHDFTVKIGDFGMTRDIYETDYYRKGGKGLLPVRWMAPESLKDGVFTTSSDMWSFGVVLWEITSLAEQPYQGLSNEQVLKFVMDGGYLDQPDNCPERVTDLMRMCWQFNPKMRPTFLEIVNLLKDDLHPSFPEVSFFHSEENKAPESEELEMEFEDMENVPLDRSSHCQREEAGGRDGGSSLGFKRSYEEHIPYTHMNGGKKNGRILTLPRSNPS

In the case of `Nc1cc(C(F)(F)F)c(-c2cc(N3CCOCC3)nc(N3CCOCC3)n2)cn1`, the inhibition [1] is reported as 6%, the inhibition [2] is reported as 1% and the inhibition [3] is reported as 5%. The inhibition [4] was 10%, the inhibition [5] was 3% and the inhibition [6] was 3%. For the same compound, the inhibition [7] was 5%, the inhibition [8] was 3% and the inhibition [9] was 3%. The inhibition [10] was 11%, the inhibition [11] was 13% and the inhibition [12] was -2%. The inhibition [13] was 1%, the inhibition [14] was 1% and the inhibition [15] was 9%. The inhibition [16] was 0%, the inhibition [17] was 4% and the inhibition [18] was 3%. The inhibition [19] was 1%, the inhibition [20] was 0% and the inhibition [21] was 2%. For the same compound, the inhibition [22] was -4%, the inhibition [23] was 4% and the inhibition [24] was 3%. The inhibition [25] was -4%, the inhibition [26] was 9% and the inhibition [27] was 4%. The inhibition [28] was -1%, the inhibition [29] was 5% and the inhibition [30] was 8%. It also gave an inhibition [31] of 9%, an inhibition [32] of 18% and an inhibition [33] of 10%. For the same compound, the inhibition [34] was -1%, the inhibition [35] was 3% and the inhibition [36] was 5%. It also gave an inhibition [37] of 5%, an inhibition [38] of 5% and an inhibition [39] of 11%. It also gave an inhibition [40] of 6%.
